How the values were obtained:
db/db mice = assay: Glucose lowering in db/db mice; type: in vivo, mouse; details: freely-feeding; for inhibition in vivo at 30 mg/kg / inhibition in vivo at 100 mg/kg: Mus musculus, oral gavage, 100% = normalization to lean db/+ mice; for Glucose lowering: vs vehicle-treated db/db mice
Description: Purpose: To assess the effects of compounds of the invention on blood glucose levels in the db/db mouse, an animal model of type 2 diabetes.
Methods: Compounds were dissolved in polyethylene glycol-400 and administered by oral gavage to db/db mice in the freely-feeding state at doses of 30 and/or 100 mg/kg. Blood glucose levels were assessed in blood samples obtained by tail bleed at baseline (prior to drug administration) and at regular time intervals over 24 hours using a portable glucometer such as the OneTouch or HemoCue meters. The magnitude of blood glucose lowering elicited by the compounds of the invention was determined by comparison to those in db/db mice administered only the vehicle. The percentage glucose lowering was calculated by factoring in the blood glucose levels of vehicle-treated lean db/+(heterozygote) mice, with 100% representing the normalization of blood glucose levels from the hyperglycemic state (vehicle-treated db/db mice) to the normoglycemic state (vehicle-treated db/+ mice).

[1] = test system: glucagon-challenged Beagle dogs; assay: Glucose lowering in glucagon-challenged Beagle dogs; type: in vivo, dog; details: Beagle dogs (n=3), oral gavage 38 mg/kg in PEG-400, glucagon 20 μg s.c. after 1.5 hours
Description: Purpose: To assess the effects of compounds of the invention on blood glucose levels in glucagon-challenged Beagle dogs.
Methods: Beagle dogs (n=3) were treated with vehicle (polyethylenelglycol-400) by oral gavage. After 1.5 hours, glucagon (20 μg) was administered subcutaneously. Blood glucose levels were measured prior to glucagon administration and at 10-minute intervals thereafter for up to an hour. Blood samples for these determinations were obtained from a superficial ear vein and were measured using a OneTouch glucometer. After a 1-week washout, the animals were treated by oral gavage with the compound of Example 2.009 at a dose of 38 mg/kg (polyethylenelglycol-400 formulation). The glucagon challenge and blood sampling were then performed as before.

[2] = oral gavage in PEG-400, dose 30 mg/Kg
[3] = oral gavage in PEG-400, dose 100 mg/Kg

**Q.** With `CC(C)(C)/C=C/c1ccc(C(Cc2ccc(C(=O)NCCS(=O)(=O)[O-])cc2)C(=O)Nc2ccc(-c3cc4ccccc4o3)cc2)cc1.[Na+]` (centres unmarked) [Example 1.052] as the compound, how does the inhibition in vivo at 30 mg/kg (db/db mice) read?
**A.** The inhibition in vivo at 30 mg/kg was 61%.

**Q.** What about the “Glucose lowering” value (db/db mice; [2]) of the same compound?
**A.** The value was 147 mg/dL.

**Q.** Which inhibition in vivo at 30 mg/kg (db/db mice) does the source give for `CC(C)(C)/C=C/c1ccc(C(Cc2ccc(C(=O)NCCS(=O)(=O)[O-])cc2)C(=O)Nc2ccc(-c3ccc(Cl)cc3Cl)cc2)cc1.[Na+]` (centres unmarked) [Example 1.133] here?
**A.** Its inhibition in vivo at 30 mg/kg is 57%.

**Q.** And the “Glucose lowering” value (db/db mice; [2])?
**A.** Its value is 157 mg/dL.

**Q.** Which results are given for `CC(C)(C)/C=C/c1ccc(C(Cc2ccc(C(=O)NCCS(=O)(=O)[O-])cc2)C(=O)Nc2ccc(-c3ccc(C(F)(F)F)cc3Cl)cc2)cc1.[Na+]` (centres unmarked) [Example 1.135]?
**A.** inhibition in vivo at 100 mg/kg (db/db mice): 41%; Glucose lowering (db/db mice; [3]): 131 mg/dL

**Q.** How did the inhibition in vivo at 30 mg/kg (db/db mice) turn out when `CC(C)(C)COc1ccc(C(Cc2ccc(C(=O)NCCS(=O)(=O)O)cc2)C(=O)Nc2ccc(-c3ccc(Cl)cc3Cl)cc2)cc1.[Na+]` (centres unmarked) [Example 1.136] was run?
**A.** The inhibition in vivo at 30 mg/kg was 16%.

**Q.** And the “Glucose lowering” value (db/db mice; [2])?
**A.** The value was 47 mg/dL.

**Q.** `CC(c1ccc(C(=O)NCCS(=O)(=O)[O-])cc1)C(C(=O)Nc1ccc(-c2ccc(Cl)cc2Cl)cc1)c1ccc(/C=C/C(C)(C)C)cc1.[Na+]` (centres unmarked) [Example 1.137] was tested. Which inhibition in vivo at 30 mg/kg (db/db mice) did it give?
**A.** Its inhibition in vivo at 30 mg/kg is 53%.

**Q.** And the “Glucose lowering” value (db/db mice; [2])?
**A.** The value was 159 mg/dL.

**Q.** For `CC(C)(C)C1CCC(C(Cc2ccc(C(=O)NCCS(=O)(=O)[O-])cc2)C(=O)Nc2ccc(-c3ccc(Cl)cc3Cl)cc2)CC1.[Na+]` (centres unmarked) [Example 1.138], which inhibition in vivo at 30 mg/kg (db/db mice) is on record?
**A.** Its inhibition in vivo at 30 mg/kg is 6%.

**Q.** What about the “Glucose lowering” value (db/db mice; [2]) of the same compound?
**A.** Its value is 19 mg/dL.

**Q.** For `O=C(NCCS(=O)(=O)O)c1ccc(CC(C(=O)Nc2ccc(-c3cc4ccccc4o3)cc2Cl)c2ccc(OC(F)(F)F)cc2)cc1` (centres unmarked) [Example 1.155], which inhibition in vivo at 30 mg/kg (db/db mice) is on record?
**A.** The inhibition in vivo at 30 mg/kg was 49%.

**Q.** What about the “Glucose lowering” value (db/db mice; [2]) of the same compound?
**A.** The value was 108 mg/dL.

**Q.** Which results are given for `Cc1cc(C(F)(F)F)ccc1-c1ccc(NC(=O)C(Cc2ccc(C(=O)NCCS(=O)(=O)O)cc2)c2ccc(/C=C/C(C)(C)C)cc2)cc1Cl` (centres unmarked) [Example 1.173]?
**A.** inhibition in vivo at 30 mg/kg (db/db mice): 50%; Glucose lowering (db/db mice; [2]): 172 mg/dL

**Q.** What does the source list for `Cc1cc(NC(=O)C(Cc2ccc(C(=O)NCCS(=O)(=O)O)cc2)c2ccc(/C=C/C(C)(C)C)cc2)ccc1-c1ccc(C(F)(F)F)cc1Cl` (centres unmarked) [Example 1.179]?
**A.** inhibition in vivo at 30 mg/kg (db/db mice): 34%; Glucose lowering (db/db mice; [2]): 102 mg/dL

**Q.** Which results are given for `Cc1cc(Cl)ccc1-c1ccc(NC(=O)C(Cc2ccc(C(=O)NCCS(=O)(=O)O)cc2)c2ccc(C3=CCC(C(C)(C)C)CC3)cc2)cc1` (centres unmarked) [Example 1.269]?
**A.** inhibition in vivo at 30 mg/kg (db/db mice): 42%; Glucose lowering (db/db mice; [2]): 124 mg/dL

**Q.** How did the inhibition in vivo at 30 mg/kg (db/db mice) turn out when `CC(C)(C)C1CC=C(c2ccc(C(Cc3ccc(C(=O)NCCS(=O)(=O)O)cc3)C(=O)Nc3ccc(-c4ccc(C(F)(F)F)cc4Cl)cc3)cc2)CC1` (centres unmarked) [Example 1.270] was run?
**A.** Its inhibition in vivo at 30 mg/kg is 24%.

**Q.** What about the “Glucose lowering” value (db/db mice; [2]) of the same compound?
**A.** The value was 63 mg/dL.

**Q.** Which inhibition in vivo at 30 mg/kg (db/db mice) does the source give for `Cc1cc(NC(=O)C(Cc2ccc(C(=O)NCCS(=O)(=O)O)cc2)c2ccc(OCC(C)(C)C)cc2)ccc1-c1ccc(C(F)(F)F)cc1C` (centres unmarked) [Example 1.311] here?
**A.** Its inhibition in vivo at 30 mg/kg is 36%.

**Q.** And the “Glucose lowering” value (db/db mice; [2])?
**A.** Its value is 109 mg/dL.

**Q.** With `CC(C)(C)COc1ccc(C(Cc2ccc(C(=O)NCCS(=O)(=O)O)cc2)C(=O)Nc2ccc(-c3ccc(C(F)(F)F)cc3Cl)cc2)cc1` (centres unmarked) [Example 1.314] as the compound, how does the inhibition in vivo at 30 mg/kg (db/db mice) read?
**A.** Its inhibition in vivo at 30 mg/kg is 40%.

**Q.** What about the “Glucose lowering” value (db/db mice; [2]) of the same compound?
**A.** Its value is 95 mg/dL.

**Q.** With `CCC(c1ccc(C(=O)NCCS(=O)(=O)O)cc1)C(C(=O)Nc1ccc(-c2ccc(Cl)cc2Cl)cc1)c1ccc(/C=C/C(C)(C)C)cc1` (centres unmarked) [Example 1.315] as the compound, how does the inhibition in vivo at 30 mg/kg (db/db mice) read?
**A.** The inhibition in vivo at 30 mg/kg was 57%.

**Q.** And the “Glucose lowering” value (db/db mice; [2])?
**A.** The value was 172 mg/dL.

**Q.** What does the source list for `Cc1cc(C(F)(F)F)ccc1-c1ccc(NC(=O)C(Cc2ccc(C(=O)NCCS(=O)(=O)O)cc2)c2ccc(/C=C/C(C)(C)C)cc2)cc1` (centres unmarked) [Example 1.320]?
**A.** inhibition in vivo at 30 mg/kg (db/db mice): 39%; Glucose lowering (db/db mice; [2]): 121 mg/dL

**Q.** Which inhibition in vivo at 30 mg/kg (db/db mice) does the source give for `CC(C)(C)/C=C/c1ccc(C(Cc2ccc(C(=O)NCCS(=O)(=O)O)cc2)C(=O)Nc2ccc(C3=Cc4ccccc4C3)cc2)cc1` (centres unmarked) [Example 1.321] here?
**A.** The inhibition in vivo at 30 mg/kg was 68%.

**Q.** What about the “Glucose lowering” value (db/db mice; [2]) of the same compound?
**A.** The value was 161 mg/dL.

**Q.** `Cc1cc(Cl)ccc1-c1ccc(NC(=O)C(Cc2ccc(C(=O)NCCS(=O)(=O)O)cc2)c2ccc(/C=C/C(C)(C)C)cc2)cc1Cl` (centres unmarked) [Example 1.359] was tested. Which inhibition in vivo at 100 mg/kg (db/db mice) did it give?
**A.** Its inhibition in vivo at 100 mg/kg is 48%.

**Q.** What about the “Glucose lowering” value (db/db mice; [3]) of the same compound?
**A.** Its value is 150 mg/dL.

**Q.** Which “attenuation of the glucagon-induced glucose excursion” value [1] does the source give for `CC(C)(C)c1ccc(C(Cc2ccc(C(=O)NCCS(=O)(=O)[O-])cc2)c2cc(-c3cccc(-c4ccc(Cl)cc4)c3)on2)cc1.[Na+]` (centres unmarked) [Example 2.009] here?
**A.** The value was “approximately 40%”.

From US10239829B2, “Antagonists of the glucagon receptor” (Metabasis Therapeutics, Inc., priority 2007, dated 2019)
